Measured values: article PMC11699025 (Natural Products and Bioprospecting, 2025)
Values joined by “and” are separate entries in the source; they are usually repeats but may differ in a detail not shown here. Equal entries are not always repeated.

Tests used:
MERS-CoV PLpro [1] = biological target: T1, MERS-CoV PLpro (Middle East respiratory syndrome-related coronavirus, UniProt K9N7C7); assay: biochemical; assay type: binding
SARS-CoV PLpro [2] = biological target: T2, SARS-CoV PLpro (Severe acute respiratory syndrome coronavirus, UniProt P0C6X7); assay: biochemical
in vitro = details: human
BtCoV Rp3 Mpro [3] = biological target: T3, BtCoV Rp3 Mpro (Bat coronavirus Rp3/2004, UniProt P0C6W6); assay: biochemical
HCoV-OC43 = assay: microbe, parasite or virus in culture; assay type: cell-based, human coronavirus OC43; details: for EC50: Betacoronavirus 1, OC43, RD, 48 h
BtCoV Rp3 PLpro [4] = biological target: T4, BtCoV Rp3 PLpro (Bat coronavirus Rp3/2004, UniProt P0C6W6); assay: biochemical; assay type: binding
BtCoV Rp3 PLpro [5] = biological target: T4, BtCoV Rp3 PLpro; assay type: binding
RD cells = details: concentrations up to 100 µM
SARS-CoV PLpro [6] = biological target: T2, SARS-CoV PLpro; assay: biochemical; assay type: binding
SARS-CoV Mpro [7] = biological target: T5, SARS-CoV Mpro (Severe acute respiratory syndrome coronavirus, UniProt P0C6X7); assay type: binding
MERS-CoV Mpro [8] = biological target: T6, MERS-CoV Mpro (Middle East respiratory syndrome-related coronavirus, UniProt K9N7C7); assay type: binding
T6 sequence (K9N7C7 3248-3553 limits assumed): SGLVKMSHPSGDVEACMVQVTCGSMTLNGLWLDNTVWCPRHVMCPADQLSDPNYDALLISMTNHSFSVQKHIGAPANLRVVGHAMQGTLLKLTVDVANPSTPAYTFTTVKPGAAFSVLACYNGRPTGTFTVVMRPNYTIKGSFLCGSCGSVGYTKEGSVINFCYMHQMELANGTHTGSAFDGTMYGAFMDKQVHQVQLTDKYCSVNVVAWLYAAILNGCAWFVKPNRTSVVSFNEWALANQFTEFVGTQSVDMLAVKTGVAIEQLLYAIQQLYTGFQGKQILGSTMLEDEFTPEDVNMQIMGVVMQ

SARS-CoV-2 PLpro WT = SARS-CoV-2 PLpro WT (Severe acute respiratory syndrome coronavirus 2, UniProt P0DTD1); assay type: binding
MERS-CoV Mpro [9] = biological target: T6, MERS-CoV Mpro; assay: biochemical; assay type: binding
BtCoV Rp3 Mpro [10] = biological target: T3, BtCoV Rp3 Mpro; assay: biochemical; assay type: binding
MERS-CoV PLpro [11] = biological target: T1, MERS-CoV PLpro; assay type: binding
SARS-CoV Mpro [12] = biological target: T5, SARS-CoV Mpro; assay: biochemical; assay type: binding
SARS-CoV-2 PLpro [13] = biological target: T7, SARS-CoV-2 PLpro (Severe acute respiratory syndrome coronavirus 2, UniProt P0DTD1); assay: biochemical; assay type: binding; details: pH 7.4, read-out: ka
SARS-CoV-2 Mpro [14] = biological target: T8, SARS-CoV-2 Mpro (Severe acute respiratory syndrome coronavirus 2, UniProt P0DTD1); assay: biochemical; assay type: binding; details: pH 7.4, read-out: ka
SARS-CoV-2 PLpro [15] = biological target: T7, SARS-CoV-2 PLpro; assay: biochemical
SARS-CoV-2 Mpro [16] = biological target: T8, SARS-CoV-2 Mpro; assay: biochemical

T1 sequence (K9N7C7 1552-1823 limits assumed): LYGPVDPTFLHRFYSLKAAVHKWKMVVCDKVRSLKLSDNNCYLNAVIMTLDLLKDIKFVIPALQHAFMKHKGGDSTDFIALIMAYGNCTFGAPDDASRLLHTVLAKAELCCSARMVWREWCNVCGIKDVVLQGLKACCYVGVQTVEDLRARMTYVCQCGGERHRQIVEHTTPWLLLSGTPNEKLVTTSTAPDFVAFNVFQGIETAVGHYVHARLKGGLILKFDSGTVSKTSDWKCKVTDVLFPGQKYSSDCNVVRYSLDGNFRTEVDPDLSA

**Q.** Which Kd (MERS-CoV PLpro [1]) does the source give for Cc1cc(O)c(O)c(Oc2cc(C)cc(O)c2Oc2cc(C)cc(O)c2O)c1 [Sydowiol B, sydowiol B] here?
**A.** 0.45 µM

**Q.** What about the IC50 (SARS-CoV PLpro [2]) of the same compound?
**A.** 2.42 ± 1.1 µM

**Q.** What about the CC50 at 48 h (in vitro) of the same compound?
**A.** > 200 µM

**Q.** What about the IC50 (BtCoV Rp3 Mpro [3]) of the same compound?
**A.** 1.16 ± 1.23 µM

**Q.** What about the EC50 (HCoV-OC43) of the same compound?
**A.** 0.69 ± 0.1 µM

**Q.** What about the Kd (BtCoV Rp3 PLpro [4]) of the same compound?
**A.** 11.8 µM

**Q.** And the Tm value (BtCoV Rp3 PLpro [5])?
**A.** 53.59 ± 0.20 (4.00) ℃ and 53.87 ± 0.13 (4.28) ℃ and 52.79 ± 0.27 (3.20) ℃

**Q.** And the “△Tm” value (BtCoV Rp3 PLpro [5])?
**A.** 53.59 ± 0.20 (4.00) ℃ and 53.87 ± 0.13 (4.28) ℃ and 52.79 ± 0.27 (3.20) ℃

**Q.** What about the “influence on cell viability” value (RD cells) of the same compound?
**A.** no influence

**Q.** What about the Kd (SARS-CoV PLpro [6]) of the same compound?
**A.** 14.2 µM

**Q.** What about the Tm value (SARS-CoV Mpro [7]) of the same compound?
**A.** 57.17 ± 0.19 (1.25) ℃ and 56.82 ± 0.25 (0.90) ℃ and 56.37 ± 0.28 (0.45) ℃

**Q.** And the Tm value (MERS-CoV Mpro [8])?
**A.** 47.47 ± 0.33 (1.37) ℃ and 47.33 ± 0.00 (1.23) ℃ and 47.27 ± 0.16 (1.17) ℃

**Q.** What about the Tm value (SARS-CoV-2 PLpro WT) of the same compound?
**A.** 51.24 ± 0.36 (5.29) ℃ and 50.31 ± 0.06 (4.36) ℃

**Q.** And the Kd (MERS-CoV Mpro [9])?
**A.** 9.35 µM

**Q.** What about the Kd (BtCoV Rp3 Mpro [10]) of the same compound?
**A.** 1.93 µM

**Q.** And the Tm value (MERS-CoV PLpro [11])?
**A.** 57.67 ± 0.32 (2.78) ℃ and 57.20 ± 0.13 (2.31) ℃ and 56.95 ± 0.13 (2.06) ℃

**Q.** And the Kd (SARS-CoV Mpro [12])?
**A.** 2.54 µM

**Q.** For Cc1cc(O)c(O)c(Oc2cc(C)cc(O)c2O)c1 [Violaceol I, violaceol I], which kon (MERS-CoV PLpro [1]; pH 7.4, read-out: ka) is on record?
**A.** 479 M⁻¹ s⁻¹

**Q.** What about the CC50 at 48 h (in vitro) of the same compound?
**A.** > 100 µM

**Q.** What about the “Selection Index (SI)” value (HCoV-OC43) of the same compound?
**A.** >42.02

**Q.** And the EC50 (HCoV-OC43)?
**A.** 2.38 ± 0.02 µM

**Q.** What about the kon (BtCoV Rp3 PLpro [4]; pH 7.4, read-out: ka) of the same compound?
**A.** 551 M⁻¹ s⁻¹

**Q.** And the kon (SARS-CoV-2 PLpro [13])?
**A.** 494 M⁻¹ s⁻¹

**Q.** What about the “influence on cell viability” value (RD cells) of the same compound?
**A.** no influence

**Q.** And the kon (SARS-CoV PLpro [6]; pH 7.4, read-out: ka)?
**A.** 516 M⁻¹ s⁻¹

**Q.** What about the kon (SARS-CoV-2 Mpro [14]) of the same compound?
**A.** 969 M⁻¹ s⁻¹

**Q.** And the kon (MERS-CoV Mpro [9]; pH 7.4, read-out: ka)?
**A.** 454 M⁻¹ s⁻¹

**Q.** What about the IC50 (SARS-CoV-2 PLpro [15]) of the same compound?
**A.** 42.3 ± 1.02 µM

**Q.** What about the kon (BtCoV Rp3 Mpro [10]; pH 7.4, read-out: ka) of the same compound?
**A.** 532 M⁻¹ s⁻¹

**Q.** What about the IC50 (SARS-CoV-2 Mpro [16]) of the same compound?
**A.** 8.27 ± 1.15 µM

**Q.** And the kon (SARS-CoV Mpro [12]; pH 7.4, read-out: ka)?
**A.** 547 M⁻¹ s⁻¹
